According to patent US11866450B2, “Modulators of Cystic Fibrosis Transmembrane Conductance regulator, pharmaceutical compositions, methods of treatment, and process for making the modulators” (priority 2018, dated 2024):
Where two headings read alike, the source gives them in different places.

Tests used:
[1] = snar bond, DMSO
[2] = target: CFTR-mediated chloride transport (Homo sapiens, UniProt P13569); assay type: cell-based; conditions: enteroid cells incubated with test compound 18-24 hours, acute 10 μM forskolin and 300 nM Compound III; for Max. Activity: % of chloride transport with 3 μM Compound A, 3 μM Compound II and 300 nM acute Compound III triple combination control
Chain of CFTR-mediated chloride transport (P13569 whole entry, looked up): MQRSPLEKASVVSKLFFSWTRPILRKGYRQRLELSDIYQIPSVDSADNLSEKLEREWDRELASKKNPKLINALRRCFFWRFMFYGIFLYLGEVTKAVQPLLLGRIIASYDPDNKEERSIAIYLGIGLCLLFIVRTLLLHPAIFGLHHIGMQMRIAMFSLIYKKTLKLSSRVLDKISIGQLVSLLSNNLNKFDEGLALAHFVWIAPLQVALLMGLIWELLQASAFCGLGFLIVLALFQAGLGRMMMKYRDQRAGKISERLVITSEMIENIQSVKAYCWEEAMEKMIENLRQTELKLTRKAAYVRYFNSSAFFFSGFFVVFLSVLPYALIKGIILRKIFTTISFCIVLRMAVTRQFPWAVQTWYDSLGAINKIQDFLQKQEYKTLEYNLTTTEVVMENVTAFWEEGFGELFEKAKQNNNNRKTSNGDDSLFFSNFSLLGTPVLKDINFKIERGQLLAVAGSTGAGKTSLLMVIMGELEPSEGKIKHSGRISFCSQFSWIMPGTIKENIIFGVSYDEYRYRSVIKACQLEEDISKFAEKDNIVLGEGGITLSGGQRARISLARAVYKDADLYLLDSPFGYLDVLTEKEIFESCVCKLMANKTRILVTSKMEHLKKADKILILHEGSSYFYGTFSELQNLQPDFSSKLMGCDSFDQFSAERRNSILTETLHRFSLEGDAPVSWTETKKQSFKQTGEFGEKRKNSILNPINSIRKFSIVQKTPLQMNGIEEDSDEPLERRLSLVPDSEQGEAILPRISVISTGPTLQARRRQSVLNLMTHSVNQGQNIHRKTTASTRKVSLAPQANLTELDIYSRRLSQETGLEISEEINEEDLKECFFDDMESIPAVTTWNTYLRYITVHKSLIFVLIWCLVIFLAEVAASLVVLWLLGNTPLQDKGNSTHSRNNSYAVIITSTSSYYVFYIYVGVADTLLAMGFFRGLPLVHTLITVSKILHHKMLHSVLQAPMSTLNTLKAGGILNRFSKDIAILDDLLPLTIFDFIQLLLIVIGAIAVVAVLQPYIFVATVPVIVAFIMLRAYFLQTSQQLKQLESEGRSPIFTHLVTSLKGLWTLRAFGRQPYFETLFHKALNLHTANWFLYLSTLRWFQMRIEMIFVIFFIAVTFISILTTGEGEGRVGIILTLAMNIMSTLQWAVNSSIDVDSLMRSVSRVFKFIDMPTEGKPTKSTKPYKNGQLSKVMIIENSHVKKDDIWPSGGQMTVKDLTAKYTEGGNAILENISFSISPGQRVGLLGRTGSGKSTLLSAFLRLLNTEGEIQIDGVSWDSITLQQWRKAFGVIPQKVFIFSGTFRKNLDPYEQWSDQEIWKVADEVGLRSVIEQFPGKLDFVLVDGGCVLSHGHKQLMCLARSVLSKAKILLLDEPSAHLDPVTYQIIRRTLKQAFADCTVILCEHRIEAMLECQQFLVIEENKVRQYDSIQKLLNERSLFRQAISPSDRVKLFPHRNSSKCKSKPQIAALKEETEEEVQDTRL
Procedure, shortened: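 Human intestinal enteroid cells incubated with compound 18–24 h at 37° C., then membrane potential dye (FLIPR) read 15 min after chloride-free stimulation with 10 μM forskolin, 100 μM IBMX and 300 nM Compound III. AUC expressed as % of triple-combination control (3 μM Compound A, 3 μM Compound II, 300 nM Compound III).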

For `CC1(C)C[C@H]2CCCNc3cccc(n3)S(=O)(=O)NC(=O)c3ccc(-n4ccc(OCCCC5(C(F)(F)F)CC5)n4)nc3N1C2` [Compound 190, (14R)-12,12-dimethyl-8-(3-{3-[1-(trifluoromethyl)cyclopropyl]propoxy}-1H-pyrazol-1-yl)-2λ^6-thia-3,9,11,18,23-pentaazatetracyclo[17.3.1.111,14.05,10]tetracosa-1(23),5,7,9,19,21-hexaene-2,2,4-trione], the ring closure, yield after HPLC ([1]; from CC1(C)CC(CCCNc2cccc(S(=O)(=O)NC(=O)c3ccc(-n4ccc(OCCCC5(C(F)(F)F)CC5)n4)nc3Cl)n2)CN1, 15-membered ring, K2CO3/CsF/4A MS, 102.3 mM, 150.0 °C, 2 steps) was 49%, the EC50 [2] was less than 1000 nM and the “Max. Activity” value [2] was “++ (++ is 30-60%)”.
In the case of `CC1(C)CC2CN1c1nc(-n3ccc(OCCCC4(C(F)(F)F)CC4)n3)ccc1C(=O)NS(=O)(=O)c1cccc(n1)NCCO2` (stereo not drawn) [Compound 157], the ring closure, yield after HPLC ([1]; from CC1(C)CC(OCCNc2cccc(S(=O)(=O)NC(=O)c3ccc(-n4ccc(OCCCC5(C(F)(F)F)CC5)n4)nc3Cl)n2)CN1, 15-membered ring, K2CO3/CsF/4A MS, 105.0 mM, 150.0 °C) is reported as 34%, the EC50 [2] is reported as less than 1000 nM and the “Max. Activity” value [2] is reported as “+++ (+++ is >60%)”.
For `CC1(C)CCC2CCCCNc3cccc(n3)S(=O)(=O)NC(=O)c3ccc(-n4ccc(OCCC5(C(F)(F)F)CC5)n4)nc3N21` (stereo not drawn) [Compound 37, 12,12-dimethyl-8-(3-{2-[1-(trifluoromethyl)cyclopropyl]ethoxy}-1H-pyrazol-1-yl)-2λ^6-thia-3,9,11,20,25-pentaazatetracyclo[19.3.1.05,10.011,15]pentacosa-1(24),5,7,9,21(25),22-hexaene-2,2,4-trione], the ring closure, yield after HPLC ([1]; from CC1(C)CCC(CCCCNc2cccc(S(=O)(=O)NC(=O)c3ccc(-n4ccc(OCCC5(C(F)(F)F)CC5)n4)nc3Cl)n2)N1, 15-membered ring, K2CO3/CsF, 85.3 mM, 150.0 °C) was 25%, the EC50 [2] was less than 1000 nM and the “Max. Activity” value [2] was “+ (+ is <30%)”.
For `CC1(C)C[C@@H]2CCCNc3cccc(n3)S(=O)(=O)NC(=O)c3ccc(-n4ccc(OCC(C)(C)C(F)(F)F)n4)nc3N1C2` [Compound 208, (14S)-12,12-dimethyl-8-[3-(3,3,3-trifluoro-2,2-dimethylpropoxy)-1H-pyrazol-1-yl]-2λ^6-thia-3,9,11,18,23-pentaazatetracyclo[17.3.1.111,14.05,10]tetracosa-1(22),5,7,9,19(23),20-hexaene-2,2,4-trione], the ring closure, yield after HPLC ([1]; from CC1(C)C[C@H](CCCNc2cccc(S(=O)(=O)NC(=O)c3ccc(-n4ccc(OCC(C)(C)C(F)(F)F)n4)nc3Cl)n2)CN1, 15-membered ring, K2CO3/CsF/3A MS, 57.7 mM, 150.0 °C) was 51%, the EC50 [2] was less than 1000 nM and the “Max. Activity” value [2] was “+++ (+++ is >60%)”.
In the case of `CC1(C)CC2CCNc3cccc(n3)S(=O)(=O)NC(=O)c3ccc(-n4ccc(OCC5(C(F)(F)F)CC5)n4)nc3N1C2` (stereo not drawn) [Compound 4, 7,7-dimethyl-11-(3-{[1-(trifluoromethyl)cyclopropyl]methoxy}-1H-pyrazol-1-yl)-17λ^6-thia-2,8,10,16,22-pentaazatetracyclo[16.3.1.1(5,8).0(9,14)]tricosa-1(21),9(14),10,12,18(22),19-hexaene-15,17,17-trione], the ring closure, yield after HPLC ([1]; from CC1(C)CC(CCNc2cccc(S(=O)(=O)NC(=O)c3ccc(-n4ccc(OCC5(C(F)(F)F)CC5)n4)nc3Cl)n2)CN1, 14-membered ring, K2CO3, 210.5 mM, 125.0 °C, 112.0 h, 2 steps) is reported as 9%, the EC50 [2] is reported as less than 1000 nM and the “Max. Activity” value [2] is reported as “+++ (+++ is >60%)”.
In the case of `Cc1nn2cc1S(=O)(=O)NC(=O)c1ccc(-n3ccc(OCCC4(C(F)(F)F)CC4)n3)nc1N1CC(CCC2)CC1(C)C` (stereo not drawn) [Compound 19, 12,20,20-trimethyl-4-(3-{2-[1-(trifluoromethyl)cyclopropyl]ethoxy}-1H-pyrazol-1-yl)-10λ^6-thia-1,3,9,13,14-pentaazatetracyclo[16.2.1.111,14.02,7]docosa-2,4,6,11(22),12-pentaene-8,10,10-trione], the ring closure, yield after HPLC ([1]; from Cc1nn(CCCC2CNC(C)(C)C2)cc1S(=O)(=O)NC(=O)c1ccc(-n2ccc(OCCC3(C(F)(F)F)CC3)n2)nc1Cl, 14-membered ring, K2CO3/CsF/3A MS, 31.9 mM, 150.0 °C) is reported as 9%, the EC50 [2] is reported as 1000 to 3000 nM and the “Max. Activity” value [2] is reported as “++ (++ is 30-60%)”.
With `Cc1ccc2nc1S(=O)(=O)NC(=O)c1ccc(-n3ccc(OCCC4(C(F)(F)F)CC4)n3)nc1N1CC(CCCN2)CC1(C)C` (stereo not drawn) [Compound 129, 12,12,22-Trimethyl-8-(3-{2-[1-(trifluoromethyl)cyclopropyl]ethoxy}-1H-pyrazol-1-yl)-2λ^6-thia-3,9,11,18,23-pentaazatetracyclo[17.3.1.111,14.05,10]tetracosa-1(23),5(10),6,8,19,21-hexaene-2,2,4-trione] the ring closure, yield after HPLC ([1]; from Cc1ccc(NCCCC2CN(C(=O)OC(C)(C)C)C(C)(C)C2)nc1S(=O)(=O)NC(=O)c1ccc(-n2ccc(OCCC3(C(F)(F)F)CC3)n2)nc1Cl, 15-membered ring, K2CO3/CsF/3A MS, 79.1 mM, 140.0 °C, 2 steps) was 34%, the EC50 [2] was less than 1000 nM and the “Max. Activity” value [2] was “+++ (+++ is >60%)”.
In the case of `CC1(C)CC2CCCn3ccc(n3)S(=O)(=O)NC(=O)c3ccc(-n4ccc(OCCC5(C(F)(F)F)CC5)n4)nc3N1C2` (stereo not drawn) [Compound 32, 20,20-dimethyl-4-(3-{2-[1-(trifluoromethyl)cyclopropyl]ethoxy}-1H-pyrazol-1-yl)-10λ^6-thia-1,3,9,14,22-pentaazatetracyclo[16.2.1.111,14.02,7]docosa-2(7),3,5,11(22),12-pentaene-8,10,10-trione], the ring closure, yield after HPLC ([1]; from CC(C)(C)OC(=O)N1CC(CCCn2ccc(S(=O)(=O)NC(=O)c3ccc(-n4ccc(OCCC5(C(F)(F)F)CC5)n4)nc3Cl)n2)CC1(C)C, 14-membered ring, K2CO3/CsF/3A MS, 55.3 mM, 130.0 °C, 2 steps) is reported as 40%, the EC50 [2] is reported as less than 1000 nM and the “Max. Activity” value [2] is reported as “+++ (+++ is >60%)”.
For `Cc1c2cnn1CCCC1CN(c3nc(-n4ccc(OCCC5(C(F)(F)F)CC5)n4)ccc3C(=O)NS2(=O)=O)C(C)(C)C1` (stereo not drawn) [Compound 18, 20,20,22-trimethyl-4-(3-{2-[1-(trifluoromethyl)cyclopropyl]ethoxy}-1H-pyrazol-1-yl)-10λ^6-thia-1,3,9,13,14-pentaazatetracyclo[16.2.1.111,14.02,7]docosa-2,4,6,11(22),12-pentaene-8,10,10-trione], the ring closure, yield after HPLC ([1]; from Cc1c(S(=O)(=O)NC(=O)c2ccc(-n3ccc(OCCC4(C(F)(F)F)CC4)n3)nc2Cl)cnn1CCCC1CNC(C)(C)C1, 14-membered ring, K2CO3/CsF/3A MS, 31.9 mM, 150.0 °C) was 7%, the EC50 [2] was less than 1000 nM and the “Max. Activity” value [2] was “++ (++ is 30-60%)”.
In the case of `CC1(C)CC2CCCCNc3ccc(nc3)S(=O)(=O)NC(=O)c3ccc(-n4ccc(OCCC5(C(F)(F)F)CC5)n4)nc3N1C2` (stereo not drawn) [Compound 123, 12,12-Dimethyl-8-(3-{2-[1-(trifluoromethyl)cyclopropyl]ethoxy}-1H-pyrazol-1-yl)-2λ^6-thia-3,9,11,19,22-pentaazatetracyclo[18.2.2.111,14.05,10]pentacosa-1(22),5(10),6,8,20,23-hexaene-2,2,4-trione], the ring closure, yield after HPLC ([1]; from CC(C)(C)OC(=O)N1CC(CCCCNc2ccc(S(=O)(=O)NC(=O)c3ccc(-n4ccc(OCCC5(C(F)(F)F)CC5)n4)nc3Cl)nc2)CC1(C)C, 17-membered ring, K2CO3/CsF/3A MS, 110.5 mM, 150.0 °C, 2 steps) is reported as 4%, the EC50 [2] is reported as less than 1000 nM and the “Max. Activity” value [2] is reported as “+++ (+++ is >60%)”.
In the case of `CC(C)COc1cc(F)cc(-c2ccc3c(n2)N2C[C@@H](CCCNc4cccc(n4)S(=O)(=O)NC3=O)CC2(C)C)c1` [Compound 224, (14S)-8-[3-Fluoro-5-(2-methylpropoxy)phenyl]-12,12-dimethyl-2λ^6-thia-3,9,11,18,23-pentaazatetracyclo[17.3.1.111,14.05,10]tetracosa-1(22),5,7,9,19(23),20-hexaene-2,2,4-trione], the ring closure, yield after HPLC ([1]; from CC(C)COc1cc(F)cc(-c2ccc(C(=O)NS(=O)(=O)c3cccc(NCCC[C@@H]4CN(C(=O)OC(C)(C)C)C(C)(C)C4)n3)c(Cl)n2)c1, 15-membered ring, K2CO3/CsF/3A MS, 30.6 mM, 150.0 °C, 2 steps) is reported as 14%, the EC50 [2] is reported as less than 1000 nM and the “Max. Activity” value [2] is reported as “+++ (+++ is >60%)”.
For `CC1(C)CC2CCCNc3cccc(n3)S(=O)(=O)NC(=O)c3ccc(-n4ccc(O)n4)nc3N1C2` (stereo not drawn) [Compound 38, 8-(3-hydroxy-1H-pyrazol-1-yl)-12,12-dimethyl-2λ^6-thia-3,9,11,18,23-pentaazatetracyclo[17.3.1.111,14.05,10]tetracosa-1(22),5,7,9,19(23),20-hexaene-2,2,4-trione], the ring closure, yield after HPLC ([1]; from CC1(C)CC(CCCNc2cccc(S(=O)(=O)NC(=O)c3ccc(-n4ccc(O)n4)nc3Cl)n2)CN1, 15-membered ring, CsF/K2CO3/3A MS, 39.3 mM, 140.0 °C) was 17%, the EC50 [2] was greater than 3000 nM and the “Max. Activity” value [2] was “++ (++ is 30-60%)”.
For `CC1(C)CC2CCCOc3ccc(cn3)S(=O)(=O)NC(=O)c3ccc(-n4ccc(OCCC5(C(F)(F)F)CC5)n4)nc3N1C2` (stereo not drawn) [Compound 90, 12,12-dimethyl-8-(3-{2-[1-(trifluoromethyl)cyclopropyl]ethoxy}-1H-pyrazol-1-yl)-18-oxa-2λ^6-thia-3,9,11,20-tetraazatetracyclo[17.2.2.111,14.05,10]tetracosa-1(21),5(10),6,8,19,22-hexaene-2,2,4-trione], the ring closure, yield after HPLC ([1]; from CC(C)(C)OC(=O)N1CC(CCCOc2ccc(S(=O)(=O)NC(=O)c3ccc(-n4ccc(OCCC5(C(F)(F)F)CC5)n4)nc3Cl)cn2)CC1(C)C, 16-membered ring, HCl (Boc off), K2CO3/CsF/3A MS, 61.4 mM, 155.0 °C, 2 steps) was 7%, the EC50 [2] was less than 1000 nM and the “Max. Activity” value [2] was “++ (++ is 30-60%)”.
